The source of these data is US20240124467A1, “FUSED PYRIMIDINE COMPOUNDS AS INHIBITORS OF MENIN-MLL INTERACTION” (Biomea Fusion, Inc., priority 2020, published 2024).

Assay type in all cases: cell-based
One test deals with K-562. Description: Cell proliferation inhibition (CellTiter-Glo), K-562 cells. To be noted: Homo sapiens, K-562 (BCR-ABL). As for the experimental part:
(§1) The present example evaluates the ability of compounds described herein, inhibitors of Menin/MLL interaction, to inhibit cell proliferation. The proliferation inhibitory effect was investigated in human MLL-leukemia cells selected on the bases of MLL fusion proteins and listed in the table below.
(§2) ATP is present in all metabolically active cells and is considered as a marker for cell viability and proliferation. The metabolic cell activity was determined using the CellTiter-Glo kit from Promega, an ATP monitoring system based on the production of luminescence by the reaction of ATP with added UltraGlo® recombinant luciferase (Kawano et al., 2016, PLOS One, 8:11(7):e0158888), according to the supplier's experimental recommendations. The assay is based on a 96 well plate format. All experiments were carried out in duplicate in one test occasion.
(§3) Test items were dissolved at 20 mM in DMSO with purity ≥99.9% (Sigma catalog no. D8418) and stored at −20° C. Cells were maintained in RPMI-1640 medium (Invitrogen catalog no. 618700) supplemented with 10% of Heat Inactivated FBS (Invitrogen catalog no. 10500) and 1% Pen-Strep (Invitrogen catalog no. 15140) and cultured at 37° C. in a humidified incubator with 5% CO2. Cell lines were grown in suspension and the cell density was maintained in a range of 5×10^4-1×10^6 viable cells/ml where possible. Cells were pelleted at 130 g×5 min.
(§4) Serial dilutions of compounds 1 to 3 in DMSO 100% were prepared starting from a 2.5 mM solutions (prepared by diluting 1:8 the 20 mM stock solution) to generate a 7 point concentration response curve (CRC). Seven concentrations of test compounds (e.g., 5.00×10^−6-1.67×10^−6-5.56×10^−7-1.85×10^−7-6.17×10^−8-2.06×10^−8-6.86×10^−9 M) were assessed in duplicate in an individual test occasion in parallel in the selected cell lines. KO-539 was used as a reference compound and tested in duplicate at seven similar concentrations. 100% of proliferation was represented by the untreated cells (0.2% DMSO).
(§5) Cell proliferation inhibition was monitored at both the following end points: Day 4 (T4) and Day 7 (T7). For the appropriate cell density during the exponential cell growth and re-supply with fresh compound solution at T4, cells were diluted (1:4) with fresh medium containing the compound concentration (1×).
(§6) For each plate to test, one 0.4 μL copy plate and four 0.3 μL copy plates were stamped into 96-well plates not treated for cell adhesion (Sarstedt—cat. no. 82.1581.001) by acoustic liquid handling (Echo) at a concentration which was 500 fold the final assay concentration. Stamped plates were stored at −20° C.
(§7) On Day 0, the day of the experiment cell line suspensions were counted by Cell Viability Analyser, Vi-CELL (Beckman Coulter AY15292), and diluted with fresh medium to obtain the following cell densities: K-562 500 c/ml, MOLM-13 1,000 c/ml, MV4-11 10,000 c/ml, OCI-AML-3 500 c/ml, and U-937 500-1,000 c/ml. 200 μL/well and 150 μL/well of cell suspension were added into the 0.4 μL/well and 0.3 μL/well compound plates, respectively. Cell plate containing 200 μL/well suspension were incubated at 37° C. in a humidified incubator with 5% CO2. From each well of the 150 μL/well cell assay plate, 100 μL were harvested and transferred into a 96-well Optiplate (Perkin Elmer, cat. no. 6005290). Cell viability was measured as described below.
(§8) On Day 4, 150p/well of fresh medium was added into a new 0.3 μL/well copy compound plates. From each well of the 200 μL/well cell assay plate, 100 μL was sampled for the cell viability measurement as described below. 50p was harvested and added to the 150p/well compound plate prepared as described in the first point to dilute 1:4 the cell suspension. The cell assay plate diluted and containing 200 μL/well suspension was incubated at 37° C. in a humidified incubator with 5% CO2.
(§9) On Day 4, 150p/well of fresh medium was added into a new 0.3 μL/well copy compound plates. […]

A further test relates to MOLM-13. Description: Cell proliferation inhibition (CellTiter-Glo), MOLM-13 cells. Conditions: Homo sapiens, MOLM-13 (MLL-AF9). As for the experimental part:
as §1, §2, §3, §4, §5, §6, §7, §8, §9
Background: Cellular ATP, detected with luciferase, serves as a proxy for viable cell number.

The subject of another test is MV4-11. Description: Cell proliferation inhibition (CellTiter-Glo), MV4-11 cells. To be noted: Homo sapiens, MV4-11 (MLL-AF4). How it is done:
as §1, §2, §3, §4, §5, §6, §7, §8, §9

[1] abbreviates: K562, 96 h, Day 4, read-out: K-562 IC50 μM (Day 4).
Setting [2] is: 96 h, Day 4, read-out: MOLM-13 Day IC50 μM (Day 4)*.
Setting [3] is: 96 h, Day 4, read-out: MV-4:11 IC50 μM (Day 4)*.

Like-named read-outs stand apart in the source and are kept apart here. A value given as a limit tells only on which side of the number the result lay.

Broadly, the IC50 is the concentration that gives 50% inhibition. With `C=CC(=O)N[C@@H]1CCCN(Cc2ccnc(C(=O)NC3CCN(c4nc5c(N6CCOCC6)ncnc5s4)CC3)c2)C1` [Compound B0700-310, (R)-4-((3-acrylamidopiperidin-1-yl)methyl)-N-(1-(7-morpholinothiazolo[5,4-d]pyrimidin-2-yl)piperidin-4-yl)picolinamide], the IC50 in the test on K-562 (setting [1]) was 2.89 µM; with MOLM-13 (setting [2]), over 10 µM; in the test on MV4-11 (setting [3]), 8.92 µM.

Take `C=CC(=O)NC1CN(c2ccnc(CC(=O)Nc3ccc(-c4cc5c(N6CCOCC6)ncnc5[nH]4)cc3)n2)C1` [Compound B0700-323, N-(1-(2-(2-((4-(4-morpholino-7H-pyrrolo[2,3-d]pyrimidin-6-yl)phenyl)amino)-2-oxoethyl)pyrimidin-4-yl)azetidin-3-yl)acrylamide]: the IC50 was over 10 µM in the test with K-562 (setting [1]), 3.67 µM in the test on MOLM-13 (setting [2]) and 1.18 µM in the test with MV4-11 (setting [3]).

Take `C=CS(=O)(=O)N[C@@H]1CCCN(Cc2ccnc(C(=O)Nc3ccc(-c4cc5c(N6CCOCC6)ncnc5[nH]4)cc3)c2)C1` [Compound B0700-333, (R)—N-(4-(4-morpholino-7H-pyrrolo[2,3-d]pyrimidin-6-yl)phenyl)-4-((3-(vinylsulfonamido)piperidin-1-yl)methyl)picolinamide]: the IC50 in the test on K-562 (setting [1]) was 0.074 µM; in the test with MOLM-13 (setting [2]) it was 0.069 µM; in the test on MV4-11 (setting [3]), 0.051 µM.

For the compound `Cc1cc(C)n2c1C=C1C=CC(CCC(=O)NCCCCN(C)C/C=C/C(=O)N[C@@H]3CCCN(Cc4ccnc(C(=O)Nc5ccc(-c6cc7c(N8CCOCC8)ncnc7[nH]6)cc5)c4)C3)=[N+]1[B-]2(F)F` [Compound B0700-503], the IC50 stood at 2.51 µM with K-562 (setting [1]), 4.51 µM with MOLM-13 (setting [2]) and 2.89 µM in the test on MV4-11 (setting [3]).

In the case of `Cc1cc(C)n2c1C=C1C=CC(CCC(=O)NCCCCN(C)C/C=C/C(=O)Nc3ccc(CC(=O)Nc4ccc(-c5cc6c(N7CCOCC7)ncnc6[nH]5)cc4)cc3)=[N+]1[B-]2(F)F` [Compound B0700-504], the IC50 in the test with K-562 (setting [1]) was over 10 µM; in the test with MOLM-13 (setting [2]), 1.23 µM; in the test on MV4-11 (setting [3]) it was 1.6 µM.

As for `C=CC(=O)NC1CN(c2ccnc(NC3CC4(CCN(c5nc6c(N7CCOCC7)ncnc6[nH]5)CC4)C3)c2)C1` [Compound B0700-507, N-(1-(2-((7-(6-morpholino-9H-purin-8-yl)-7-azaspiro[3.5]nonan-2-yl)amino)pyridin-4-yl)azetidin-3-yl)acrylamide], the IC50 is over 10 µM in the test with K-562 (setting [1]), 5.21 µM with MOLM-13 (setting [2]) and 4.22 µM in the test with MV4-11 (setting [3]).

With `C=CC(=O)N[C@H]1CCN(c2cccc(CS(=O)(=O)Nc3ccc(-c4cc5c(N6CCOCC6)ncnc5[nH]4)cc3)c2)C1` [Compound B0700-511, (S)—N-(1-(3-((N-(4-(4-morpholino-7H-pyrrolo[2,3-d]pyrimidin-6-yl)phenyl)sulfamoyl)methyl)phenyl)pyrrolidin-3-yl)acrylamide], the IC50 in the test on K-562 (setting [1]) stood at 8.31 µM; with MOLM-13 (setting [2]), 0.185 µM; with MV4-11 (setting [3]), 0.113 µM.

On to `C=CC(=O)N1CC(N2CCCC(CNS(=O)(=O)N3CCN(c4nc5c(N6CCOCC6)ncnc5[nH]4)CC3)C2)C1` (stereo not shown) [Compound B0700-512], for which the figures for the IC50 in the test on K-562 (setting [1]), in the test with MOLM-13 (setting [2]) and with MV4-11 (setting [3]) were 5.18 µM, over 10 µM and over 10 µM, respectively.

Consider `C=CC(=O)N[C@@H]1CCCN(Cc2ccnc(C(C)Nc3ccc(-c4cc5c(N6CCOCC6)ncnc5[nH]4)cc3)c2)C1` (stereo partly drawn) [Compound B0700-514, N-((3R)-1-((2-(1-((4-(4-morpholino-7H-pyrrolo[2,3-d]pyrimidin-6-yl)phenyl)amino)ethyl)pyridin-4-yl)methyl)piperidin-3-yl)acrylamide], for which the IC50 in the test on K-562 (setting [1]) is over 10 µM; with K-562 (K562, 168 h, Day 7, read-out: K-562 IC50 μM (Day 7)*), over 10 µM; with MOLM-13 (setting [2]), 0.631 µM; in the test with MOLM-13 (168 h, Day 7, read-out: MOLM-13 Day IC50 μM (Day 7)*), 0.546 µM; in the test on MV4-11 (setting [3]) it was 0.651 µM; in the test with MV4-11 (168 h, Day 7, read-out: MV-4:11 IC50 μM (Day 7)*) it was 0.54 µM.

On to `C=CC(=O)N[C@@H]1CCCN(Cc2ccnc(C(=O)Nc3ccc(-c4cc5c(C6CCOCC6)ncnc5[nH]4)cc3)c2)C1` [Compound B0700-516, (R)-4-((3-acrylamidopiperidin-1-yl)methyl)-N-(4-(4-(tetrahydro-2H-pyran-4-yl)-7H-pyrrolo[2,3-d]pyrimidin-6-yl)phenyl)picolinamide], for which the IC50 in the test on K-562 (setting [1]) was 4.34 µM; in the test on MOLM-13 (setting [2]), 1.56 µM; with MV4-11 (setting [3]), 1.5 µM.

With `C=CC(=O)N[C@@H]1CCCN(Cc2ccnc(C(=O)NC3CCN(c4nc5c(N6CCOCC6)ncnc5o4)CC3)c2)C1` [Compound B0700-518], the IC50 was 5.3 µM in the test on K-562 (setting [1]), over 10 µM with MOLM-13 (setting [2]) and over 10 µM in the test with MV4-11 (setting [3]).

For `O=C(/C=C/Cc1cnc[nH]1)N[C@@H]1CCCN(Cc2ccnc(C(=O)Nc3ccc(-c4cc5c(N6CCOCC6)ncnc5[nH]4)cc3)c2)C1` [Compound B0700-523], the IC50 was over 10 µM in the test with K-562 (setting [1]), 0.213 µM in the test with MOLM-13 (setting [2]) and 0.232 µM in the test on MV4-11 (setting [3]).

On to `CN(C/C=C/C(=O)N[C@@H]1CCCN(Cc2ccnc(C(=O)Nc3ccc(-c4cc5c(N6CCOCC6)ncnc5[nH]4)cc3)c2)C1)C1CC1` [Compound B0700-524, (R,E)-4-((3-(4-(cyclopropyl(methyl)amino)but-2-enamido)piperidin-1-yl)methyl)-N-(4-(4-morpholino-7H-pyrrolo[2,3-d]pyrimidin-6-yl)phenyl)picolinamide], for which the values for the IC50 in the test with K-562 (setting [1]), with MOLM-13 (setting [2]) and with MV4-11 (setting [3]) were over 10 µM, 0.683 µM and 0.764 µM, respectively.

Turning to `CCN(C/C=C/C(=O)N[C@@H]1CCCN(Cc2ccnc(C(=O)Nc3ccc(-c4cc5c(N6CCOCC6)ncnc5[nH]4)cc3)c2)C1)C1CC1` [Compound B0700-525], the IC50 in the test on K-562 (setting [1]) was found to be 6.7 µM; with MOLM-13 (setting [2]), 0.506 µM; with MV4-11 (setting [3]), 0.634 µM.

As for `C=CC(=O)N[C@@H]1CCCN(Cc2ccnc(C(=O)NC3CCC(c4cc5c(N6CCOCC6)ncnc5[nH]4)CC3)c2)C1` (stereo partly drawn) [Compound B0700-526, (R)-4-((3-acrylamidopiperidin-1-yl)methyl)-N-(4-(4-morpholino-7H-pyrrolo[2,3-d]pyrimidin-6-yl)cyclohexyl)picolinamide], the values for the IC50 with K-562 (setting [1]), with MOLM-13 (setting [2]) and with MV4-11 (setting [3]) were over 10 µM, 3.46 µM and 6.83 µM, respectively.

For the compound `C=CC(=O)N[C@@H]1CCCN(Cc2ccnc(C(=O)NC3CC=C(c4cc5c(N6CCOCC6)ncnc5[nH]4)CC3)c2)C1` (stereo partly shown) [Compound B0700-527], the half-inhibitory concentration (IC50) with K-562 (setting [1]) was 2.89 µM; with MOLM-13 (setting [2]) it was 0.607 µM; with MV4-11 (setting [3]), 0.371 µM.

Take `[2H]C([2H])=C([2H])C(=O)N[C@@H]1CCCN(Cc2ccnc(C(=O)Nc3ccc(-c4cc5c(N6CCOCC6)ncnc5[nH]4)cc3)c2)C1` [Compound B0700-557, (R)-4-((3-(acrylamido-2,3,3-d3)piperidin-1-yl)methyl)-N-(4-(4-morpholino-7H-pyrrolo[2,3-d]pyrimidin-6-yl)phenyl)picolinamide]: the IC50 in the test with K-562 (setting [1]) stood at 0.997 µM; in the test on MOLM-13 (setting [2]) it was 0.271 µM.

`C=CC(=O)N[C@H]1CCCN(Cc2ccnc(C(=O)Nc3ccc(-c4cc5c(N6CCOCC6)ncnc5[nH]4)cc3)c2)C1` [Compound B0700-704]: the values for the IC50 in the test with K-562 (setting [1]) and in the test with MOLM-13 (setting [2]) were 0.74 µM and 0.35 µM, respectively.
